Laboratory results: PubChem BioAssay (NCI)
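Cells were grown in 96-well plates and exposed to each compound for 48 hours at five concentrations; endpoints were interpolated linearly between bracketing concentrations, or set to the highest concentration if not reached. The concentration for 50% growth inhibition is given as GI50. Definition used: TGI = concentration required for complete inhibition of growth.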

Legend:
Assay in all cases: NCI-60 cell line screen, 48 h
[1] = system: NCI-H226 lung
[2] = system: T-47D breast
[3] = system: OVCAR-8 ovarian
[4] = system: RPMI-8226 leukemia
[5] = system: MDA-MB-435
[6] = system: DU-145 prostate
[7] = system: HCT-15 colon
[8] = system: TK-10 renal
[9] = system: PC-3 prostate
[10] = system: NCI/ADR-RES ovarian

Work on `NC(CSC1c2ccccc2-c2ccccc21)C(=O)O` (centres undefined) yielded a TGI [1] greater than 100 µM, a TGI [2] greater than 100 µM and a TGI [3] greater than 100 µM. The TGI [4] was greater than 100 µM, the TGI [5] was greater than 100 µM and the TGI [6] was greater than 100 µM. For the same compound, the TGI [7] was greater than 100 µM, the TGI [8] was greater than 100 µM and the TGI [9] was greater than 100 µM. It also gave a TGI [10] greater than 100 µM.

For `CC(C)NCCCn1c(Sc2cc3c(cc2I)OCO3)nc2c(N)ncnc21`, the GI50 [1] was 0.767 µM, the TGI [1] was 79.4 µM and the GI50 [2] was 0.155 µM. For the same compound, the TGI [2] was greater than 100 µM, the GI50 [3] was 0.156 µM and the TGI [3] was greater than 100 µM. It also gave a GI50 [4] of 1.53 µM, a TGI [4] greater than 47.7 µM and a GI50 [5] of 0.0919 µM. The TGI [5] was 42 µM, the GI50 [6] was 0.0473 µM and the TGI [6] was greater than 100 µM. The GI50 [7] was 0.441 µM, the TGI [7] was greater than 100 µM and the GI50 [8] was 0.161 µM. The TGI [8] was greater than 100 µM, the GI50 [9] was 0.133 µM and the TGI [9] was greater than 100 µM. The GI50 [10] was 3.66 µM and the TGI [10] was greater than 100 µM.

`O=C1NC(=O)C(N2C(=O)c3ccccc3C2=O)CC1O` (centres undefined) was tested, and the GI50 [1] was greater than 100 µM, the TGI [1] was greater than 100 µM and the GI50 [2] was greater than 100 µM. The TGI [2] was greater than 100 µM, the GI50 [3] was greater than 100 µM and the TGI [3] was greater than 100 µM. It also gave a GI50 [4] greater than 100 µM, a TGI [4] greater than 100 µM and a GI50 [5] greater than 100 µM. For the same compound, the TGI [5] was greater than 100 µM, the GI50 [6] was greater than 100 µM and the TGI [6] was greater than 100 µM. It also gave a GI50 [7] greater than 100 µM, a TGI [7] greater than 100 µM and a GI50 [8] greater than 100 µM. For the same compound, the TGI [8] was greater than 100 µM, the GI50 [9] was greater than 100 µM and the TGI [9] was greater than 100 µM. For the same compound, the GI50 [10] was greater than 100 µM and the TGI [10] was greater than 100 µM.

Work on `CNCCCNCCCCNCCCN1C(=O)c2ccc3c4c(ccc(c24)C1=O)C(=O)N(CCCNCc1ccccc1OC)C3=O` yielded a GI50 [1] of 2.17 µM, a TGI [1] of 21.3 µM and a GI50 [2] of 0.342 µM. The TGI [2] was 5.97 µM, the GI50 [3] was 2.89 µM and the TGI [3] was 54.6 µM. For the same compound, the GI50 [4] was 3 µM, the TGI [4] was 22.8 µM and the GI50 [5] was 0.795 µM. The TGI [5] was 6.21 µM, the GI50 [6] was 5.09 µM and the TGI [6] was 17.3 µM. For the same compound, the GI50 [7] was 4.27 µM, the TGI [7] was 70.1 µM and the GI50 [8] was 4.08 µM. It also gave a TGI [8] of 43.5 µM, a GI50 [9] of 7.45 µM and a TGI [9] of 44.4 µM. For the same compound, the GI50 [10] was 7.09 µM and the TGI [10] was greater than 100 µM.

`COc1ccc2cc1Oc1ccc(cc1)C[C@H]1c3c(cc4c(c3Oc3cc5c(cc3OC)CCN(C)[C@@H]5C2)OCO4)CCN1C` showed a GI50 [1] of 4.1 µM, a TGI [1] of 11.5 µM and a GI50 [2] of 0.988 µM. For the same compound, the TGI [2] was 2.05 µM, the GI50 [3] was 2.36 µM and the TGI [3] was 9.9 µM. The GI50 [4] was 1.56 µM, the TGI [4] was 8.7 µM and the GI50 [5] was 1.03 µM. It also gave a TGI [5] of 6.12 µM, a GI50 [6] of 6.23 µM and a TGI [6] of 17.8 µM. The GI50 [7] was 2.02 µM, the TGI [7] was 8.34 µM and the GI50 [8] was 5.87 µM. It also gave a TGI [8] of 12.2 µM, a GI50 [9] of 2.08 µM and a TGI [9] of 11.4 µM. It also gave a GI50 [10] of 6.02 µM and a TGI [10] of 15.9 µM.

For `COc1ccc(-c2cc(-c3ccc(C)cc3)nc3nc(=S)[nH]c(N)c23)cc1`, the GI50 [1] was 17.5 µM, the TGI [1] was 41.7 µM and the GI50 [2] was 14.8 µM. It also gave a TGI [2] of 97.5 µM, a GI50 [3] of 21.5 µM and a TGI [3] of 86.4 µM. It also gave a GI50 [4] of 18.4 µM, a TGI [4] of 44.4 µM and a GI50 [5] of 17.6 µM. For the same compound, the TGI [5] was 36.9 µM, the GI50 [6] was 26.3 µM and the TGI [6] was 75.5 µM. It also gave a GI50 [7] of 23.9 µM, a TGI [7] of 64.4 µM and a GI50 [8] of 22.8 µM. The TGI [8] was 57.5 µM, the GI50 [9] was 37.7 µM and the TGI [9] was greater than 100 µM. For the same compound, the GI50 [10] was 32.2 µM and the TGI [10] was greater than 100 µM.

Compound `COc1ccc2c(c1)N(CCO)C1=C(C(=O)OC1)C2c1cccc(F)c1` (centres undefined) has a GI50 [1] of 4.16 µM, a TGI [1] greater than 50 µM and a GI50 [2] of 1.95 µM. It also gave a TGI [2] greater than 50 µM, a GI50 [3] of 1.24 µM and a TGI [3] greater than 50 µM. The GI50 [4] was 0.629 µM, the TGI [4] was greater than 50 µM and the GI50 [5] was 0.112 µM. For the same compound, the TGI [5] was 0.348 µM, the GI50 [6] was 1.24 µM and the TGI [6] was greater than 38.6 µM. For the same compound, the GI50 [7] was 0.233 µM, the TGI [7] was greater than 50 µM and the GI50 [8] was 10.3 µM. It also gave a TGI [8] greater than 50 µM, a GI50 [9] of 0.232 µM and a TGI [9] greater than 50 µM. For the same compound, the GI50 [10] was 0.297 µM and the TGI [10] was greater than 21.4 µM.

`O=c1[nH]c(=O)n(C2CC(O)C(COP(=O)(OCc3ccc([N+](=O)[O-])o3)N(CCCCCl)CC(O)CO)O2)cc1F` (centres undefined) was tested, and the GI50 [1] was 0.157 µM, the TGI [1] was greater than 55.2 µM and the GI50 [2] was greater than 21.4 µM. The TGI [2] was greater than 100 µM, the GI50 [3] was 0.182 µM and the TGI [3] was greater than 100 µM. It also gave a GI50 [4] of less than 0.01 µM, a TGI [4] greater than 49.8 µM and a GI50 [5] of 1.26 µM. It also gave a TGI [5] greater than 100 µM, a GI50 [6] of 0.176 µM and a TGI [6] greater than 34.8 µM. The GI50 [7] was 4.53 µM, the TGI [7] was greater than 100 µM and the GI50 [8] was 0.326 µM. It also gave a TGI [8] greater than 87.7 µM, a GI50 [9] of 0.154 µM and a TGI [9] greater than 100 µM. For the same compound, the GI50 [10] was 0.781 µM and the TGI [10] was greater than 100 µM.

With `CN1CCN(C(=O)c2cc(-c3ccc4ncnc(N5CCc6cc(F)c(Cl)cc65)c4c3)cnc2N)CC1` the GI50 [1] was 0.309 µM, the TGI [1] was 2.76 µM and the GI50 [2] was 0.0651 µM. For the same compound, the TGI [2] was 1.84 µM, the GI50 [3] was 0.29 µM and the TGI [3] was 24.1 µM. It also gave a GI50 [4] of 0.124 µM, a TGI [4] of 0.557 µM and a GI50 [5] of 0.201 µM. For the same compound, the TGI [5] was 1.2 µM, the GI50 [6] was 0.214 µM and the TGI [6] was 11.3 µM. The GI50 [7] was 0.251 µM, the TGI [7] was 2.63 µM and the GI50 [8] was 0.178 µM. It also gave a TGI [8] of 1.45 µM, a GI50 [9] of 0.176 µM and a TGI [9] of 3.78 µM. The GI50 [10] was 0.723 µM and the TGI [10] was 10.2 µM.

`O=C(O)c1ccc(C(=O)c2ccccc2)c(C(=O)O)c1` gave a TGI [1] greater than 100 µM, a TGI [2] greater than 100 µM and a TGI [3] greater than 100 µM. For the same compound, the TGI [4] was greater than 100 µM, the TGI [5] was greater than 100 µM and the TGI [6] was greater than 100 µM. It also gave a TGI [7] greater than 100 µM, a TGI [8] greater than 100 µM and a TGI [9] greater than 100 µM. It also gave a TGI [10] greater than 100 µM.

In the case of `CC(=O)/C=C/c1cn(C(=O)OC(C)(C)C)c2ccc(Br)cc12`, the GI50 [1] is reported as 11.7 µM, the TGI [1] is reported as 28.7 µM and the GI50 [2] is reported as 17.4 µM. For the same compound, the TGI [2] was 54.4 µM, the GI50 [3] was 16.2 µM and the TGI [3] was 39 µM. The GI50 [4] was 9.41 µM, the TGI [4] was greater than 66.5 µM and the GI50 [5] was 9.97 µM. The TGI [5] was 25.9 µM, the GI50 [6] was 14.1 µM and the TGI [6] was 45.1 µM. For the same compound, the GI50 [7] was 20.9 µM, the TGI [7] was greater than 100 µM and the GI50 [8] was 17.6 µM. For the same compound, the TGI [8] was 33.9 µM, the GI50 [9] was 18.2 µM and the TGI [9] was greater than 79.2 µM. The GI50 [10] was 17.9 µM and the TGI [10] was 45.4 µM.

`COc1cc2c(cc1OCCCn1c(-c3ccccn3)nc3ccccc31)N=C[C@@H]1CCCN1C2=O` showed a GI50 [1] of 0.8 µM, a TGI [1] of 6.9 µM and a GI50 [2] of 2.14 µM. The TGI [2] was 8.13 µM, the GI50 [3] was 0.957 µM and the GI50 [4] was 8.8 µM. The TGI [4] was greater than 20.8 µM, the GI50 [5] was 1.42 µM and the TGI [5] was 2.91 µM. For the same compound, the GI50 [6] was 2.72 µM, the TGI [6] was 6.72 µM and the GI50 [7] was 2.5 µM. It also gave a TGI [7] of 9.92 µM, a GI50 [8] of 3.32 µM and a TGI [8] of 10.9 µM. For the same compound, the GI50 [9] was 1.44 µM, the TGI [9] was greater than 30.6 µM and the GI50 [10] was 2.79 µM. The TGI [10] was 7.31 µM.

Compound `CCc1ccc2c(c1)N(CCO)C1=C(C(=O)OC1)C2c1cccc(Br)c1` (centres undefined) has a GI50 [1] of 0.988 µM, a TGI [1] of 13.2 µM and a GI50 [2] of 0.54 µM. It also gave a TGI [2] of 19.6 µM, a GI50 [3] of 0.847 µM and a TGI [3] of 19.6 µM. It also gave a GI50 [4] of 0.983 µM, a TGI [4] of 33.5 µM and a GI50 [5] of 0.0979 µM. The TGI [5] was 0.521 µM, the GI50 [6] was 0.658 µM and the TGI [6] was 11.3 µM. It also gave a GI50 [7] of 0.584 µM, a TGI [7] of 15.8 µM and a GI50 [8] of 1.81 µM. The TGI [8] was 18.4 µM, the GI50 [9] was 0.491 µM and the TGI [9] was 16.2 µM. The GI50 [10] was 0.278 µM and the TGI [10] was 2.21 µM.
